Test results as given in patent publication US20130066264A1, “SUGAR-RESPONSIVE GEL AND MEDICINE ADMINISTERING DEVICE” (NATIONAL INSTITUTE FOR MATERIALS SCIENCE, priority 2010, published 2013).

Details: acid-base titration, FIG. 2
Text: Next, for the sample 1, the comparative sample 1 and the comparative sample 2, the relationships between glucose concentrations and apparent changes in pKa were derived by acid-base titration in the conditions of various glucose concentrations (0 g/L, 1 g/L, 3 g/L, 5 g/L and g/L).

SMILES: C=CC(=O)NCCNC(=O)c1ccc(B(O)O)cc1F [sample 1, 4-(2-acrylamideethylcarbamoyl)-3-fluorophenylboronic acid]
- apparent pKa (glucose 0 g/L, 1 g/L, 3 g/L, 5 g/L and g/L (samples a1 to a5)): < 7.4
- degree of decrease in pKa according to the increase in concentration of glucose, versus comparative samples 1 and 2 (various glucose concentrations): remarkably superior
